Laboratory results published in patent publication US4089965A, “Thiazolylphenylguanidines as antirhinovirus agents” (American Cyanamid Company, priority 1977, dated 1978).

What was measured:
Assay in all cases: Protection of tissue from cytopathic effects (plaque inhibition, filter paper disc or agar overlay)
Conditions in all cases: 33°, 3 to 5 days
[1] = test system: Rhinovirus strain 2
[2] = test system: Rhinovirus strain 1B
[3] = test system: Rhinovirus strain 5; further: test concentration or dose not given here
[4] = test system: Rhinovirus strain 14
[5] = test system: Rhinovirus strain 23; further: test concentration or dose not given here

Measured: Protection of tissue from destruction by virus

N=C(Nc1cccc(Cl)c1)Nc1nc(-c2ccccc2)cs1 [1-(4-phenyl-2-thiazolyl)-3-(3-chlorophenyl) guanidine]
+: [1]

Cc1ccc(NC(=N)Nc2nc(-c3ccc(Cl)cc3)cs2)cc1 [1-[4-(4-chlorophenyl)-2-thiazolyl-3-(p-tolyl)guanidine]]
+: [1] | [2]

N=C(Nc1ccc(F)cc1)Nc1nc(-c2ccccc2)cs1 [1-(4-phenyl-2-thiazolyl)-3-(4-fluorophenyl) guanidine]
+: [1] | [3] | [2]

Cc1ccc(NC(=N)Nc2nc(-c3ccccc3)cs2)cc1 [1-(4-phenyl-2-thiazolyl)-3-(p-tolyl)guanidine]
+: all assays above

COC(=O)c1ccc(NC(=N)Nc2nc(-c3ccccc3)cs2)cc1 [1-(4-phenyl-thiazolyl)-3-(4-carbomethoxyphenyl)-guanidine]
+: [5] | [1]

N=C(Nc1ccc(C(=O)O)cc1)Nc1nc(-c2ccccc2)cs1 [1-(4-phenyl-2-thiazolyl)-3-(4-carboxyphenyl) guanidine]
+: all assays above
